Measured values from ChEMBL document CHEMBL1201862, “PubChem BioAssay data set” (2004).
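Results reflect a 48-hour exposure of cells in 96-well plates to compound at five concentrations. GI50 marks 50% less growth.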 The source made the active and inactive calls. Rule as the data show it: active = GI50 up to about 1.1 µM and inactive = higher.

Columns and labels:
Experiment in all cases: NCI anticancer screen, dose series, 48 h
[1] = tested on: SN12C
[2] = tested on: HCT-116
[3] = tested on: LXFL 529
[4] = tested on: UO-31
[5] = tested on: OVCAR-4
[6] = tested on: HT-29
[7] = tested on: LOX IMVI
[8] = tested on: ACHN
[9] = tested on: SF-295
[10] = tested on: CCRF-CEM
[11] = tested on: TK-10
[12] = tested on: CAKI-1
[13] = tested on: RXF 393
[14] = tested on: MOLT-4
[15] = tested on: NCI-H522
[16] = tested on: HCT-15
[17] = tested on: UACC-257
[18] = tested on: HL-60

Row | SMILES | GI50 [1] | GI50 [2] | GI50 [3] | GI50 [4] | GI50 [5] | GI50 [6] | GI50 [7] | GI50 [8] | GI50 [9] | GI50 [10] | GI50 [11] | GI50 [12] | GI50 [13] | GI50 [14] | GI50 [15] | GI50 [16] [µM] | GI50 [17] | GI50 [18]
1 | CN(C)CCCn1cnc2ncccc2c1=O | > 100 µM (inactive) | > 100 µM (inactive) | > 100 µM (inactive) | > 100 µM (inactive) | > 100 µM (inactive) | > 100 µM (inactive) | > 100 µM (inactive) | > 100 µM (inactive) | > 100 µM (inactive) | > 100 µM (inactive) | > 100 µM (inactive) | > 100 µM (inactive) | > 100 µM (inactive) | > 100 µM (inactive) | > 100 µM (inactive) | – | – | –
2 | CCOC(=O)C(c1ccsc1)P(=O)(OCC)OCC (centres undefined) | 13.3 µM (inactive) | 11.5 µM (inactive) | 12 µM (inactive) | 15 µM (inactive) | 28.7 µM (inactive) | 15.9 µM (inactive) | 6.5 µM (inactive) | 19.6 µM (inactive) | 17.3 µM (inactive) | – | 25.4 µM (inactive) | 14.1 µM (inactive) | 13.1 µM (inactive) | > 100 µM (inactive) | 3.89 µM (inactive) | 15 | 15.4 µM (inactive) | –
3 | O=C(Cc1nc2ccccc2o1)C(=O)Nc1cccc(Cl)c1 | > 100 µM (inactive) | > 100 µM (inactive) | > 100 µM (inactive) | > 100 µM (inactive) | > 100 µM (inactive) | > 100 µM (inactive) | – | > 100 µM (inactive) | > 100 µM (inactive) | > 100 µM (inactive) | > 100 µM (inactive) | > 100 µM (inactive) | > 100 µM (inactive) | > 100 µM (inactive) | > 100 µM (inactive) | > 100 | > 100 µM (inactive) | > 100 µM (inactive)
4 | O=C1CCC(=O)C12CCc1ccccc12 | > 100 µM (inactive) | – | > 100 µM (inactive) | > 100 µM (inactive) | > 100 µM (inactive) | > 100 µM (inactive) | > 100 µM (inactive) | > 100 µM (inactive) | > 100 µM (inactive) | – | > 100 µM (inactive) | > 100 µM (inactive) | > 100 µM (inactive) | – | – | > 100 | – | > 100 µM (inactive)
5 | COC(=O)C1=Cc2cc3c(cc2[C@H](c2ccc4c(c2)OCO4)C1C(=O)OC)OCO3 (some centres undefined) | > 100 µM (inactive) | 41.7 µM (inactive) | > 100 µM (inactive) | > 100 µM (inactive) | 61.9 µM (inactive) | 36.2 µM (inactive) | > 100 µM (inactive) | 43.9 µM (inactive) | 38.5 µM (inactive) | > 100 µM (inactive) | > 100 µM (inactive) | 74.1 µM (inactive) | 80.4 µM (inactive) | 35.6 µM (inactive) | – | > 100 | > 100 µM (inactive) | 65.6 µM (inactive)
6 | Cc1c2ccccc2cc2ccc3oc([N+](=O)[O-])cc3c12 | > 100 µM (inactive) | > 100 µM (inactive) | > 100 µM (inactive) | > 100 µM (inactive) | > 100 µM (inactive) | > 100 µM (inactive) | > 100 µM (inactive) | 4.73 µM (inactive) | > 100 µM (inactive) | > 100 µM (inactive) | > 100 µM (inactive) | > 100 µM (inactive) | > 100 µM (inactive) | > 100 µM (inactive) | – | > 100 | > 100 µM (inactive) | 3.93 µM (inactive)
7 | COC(=O)/C(=N\NC(N)=O)C(C#N)c1ccccc1 (centres undefined) | > 100 µM (inactive) | > 100 µM (inactive) | > 100 µM (inactive) | > 100 µM (inactive) | > 100 µM (inactive) | > 100 µM (inactive) | > 100 µM (inactive) | > 100 µM (inactive) | > 100 µM (inactive) | > 100 µM (inactive) | > 100 µM (inactive) | – | > 100 µM (inactive) | > 100 µM (inactive) | > 100 µM (inactive) | > 100 | > 100 µM (inactive) | > 100 µM (inactive)
8 | Cc1ccccc1NC(=O)c1cc(-c2ccc([N+](=O)[O-])cc2)nc(S)n1 | > 100 µM (inactive) | > 100 µM (inactive) | > 100 µM (inactive) | > 100 µM (inactive) | > 100 µM (inactive) | > 100 µM (inactive) | > 100 µM (inactive) | > 100 µM (inactive) | > 100 µM (inactive) | > 10 µM (inactive) | > 100 µM (inactive) | > 100 µM (inactive) | > 100 µM (inactive) | > 100 µM (inactive) | – | > 100 | > 100 µM (inactive) | > 100 µM (inactive)
9 | CC(C)=CCC/C(C)=C/Cc1c(O)c(C)cc2c1[nH]c1cc(O)ccc12 | > 25 µM (inactive) | > 25 µM (inactive) | > 25 µM (inactive) | > 25 µM (inactive) | > 25 µM (inactive) | > 25 µM (inactive) | > 25 µM (inactive) | > 25 µM (inactive) | – | > 25 µM (inactive) | > 25 µM (inactive) | – | > 25 µM (inactive) | > 25 µM (inactive) | > 25 µM (inactive) | > 25 | – | > 25 µM (inactive)
